What was measured:
Assay type in all cases: cell-based
[1] = molecular target: T1, vanilloid receptor 1 (VR1/TRPV1) of the rat species (Rattus norvegicus, UniProt O35433); assay: FLIPR Ca2+ influx assay on rat dorsal root ganglia cells, capsaicin stimulus (Pharmacological method I); conditions: capsaicin 100 nM stimulus, Ki from IC50 by Cheng-Prusoff
T1 construct: The spinal column is removed from decapitated rats; from tissue; host or cells: primary cells from rat dorsal root ganglia (DRG)
Description: (§1) The agonistic or antagonistic action of the substances to be investigated on the vanilloid receptor 1 (VR1/TRPV1) of the rat species may be determined with the following assay. According to this assay, the influx of Ca^2+ through the receptor channel is quantified with the assistance of a Ca^2+-sensitive dye (type Fluo-4, Molecular Probes Europe BV, Leiden, Netherlands) in a Fluorescent Imaging Plate Reader (FLIPR, Molecular Devices, Sunnyvale, USA).
Complete medium: 50 mL HAMS F12 Nutrient Mixture (Gibco Invitrogen GmbH, Karlsruhe, Germany) with 10 vol. % FCS (foetal calf serum, Gibco Invitrogen GmbH, Karlsruhe, Germany, heat-inactivated);
Cell culture plate: poly-D-lysine-coated, black 96-hole plates with clear base (96 well black/clear plate, BD Biosciences, Heidelberg, Germany) are additionally coated with laminin (Gibco Invitrogen GmbH, Karlsruhe, Germany), by diluting laminin to a concentration of 100 μg/mL with PBS (Ca—Mg-free PBS, Gibco Invitrogen GmbH, Karlsruhe, Germany). Aliquots with a concentration of 100 μg/mL of laminin are taken and stored at −20° C. The aliquots are diluted with PBS in the ratio of 1:10 to 10 μg/mL of laminin and 50 μL of the solution is pipetted into each well of the cell culture plate. The cell culture plates are incubated for at least two hours at 37° C., the supernatant solution is aspirated and the wells are each washed twice with PBS. The coated cell culture plates are stored with supernatant PBS and this is only removed directly prior to introduction of the cells.
The spinal column is removed from decapitated rats and this is placed directly in cold HBSS buffer (Hank's buffered saline solution, Gibco Invitrogen GmbH, Karlsruhe, Germany), i.e. located in an ice bath, combined with 1 vol. % (percent by volume) of an AA solution (antibiotic/antimycotic solution, PAA, Pasching, Austria). The spinal column is severed lengthwise and removed from the spinal canal together with fasciae. The dorsal root ganglia (DRGs) are then removed and in turn stored in cold HBSS buffer combined with 1 vol. % of an AA solution. The DRGs, from which blood residues and spinal nerves have been completely removed, are in each case transferred into 500 μL cold collagenase type 2 (PAA, Pasching, Austria) and incubated for 35 minutes at 37° C. After the addition of 2.5 vol. % trypsin (PAA, Pasching, Austria) incubation at 37° C. is continued for a further 10 minutes. After complete incubation, the enzyme solution is carefully pipetted off and the remaining DRGs are combined in each case with 500 μL of complete medium.
The DRGs are in each case repeatedly suspended, drawn through cannulas no. 1, no. 12 and no. 16 by means of a syringe and transferred into 50 mL Falcon microtubes, these being filled to 15 mL with complete medium. The content of each Falcon microtube is in each case filtered through a 70 μm Falcon filter insert and centrifuged for 10 minutes at 1200 revolutions and room temperature. The resultant pellet is in each case redissolved in 250 μL of complete medium and the cell count is determined.
The number of cells in the suspension is adjusted to 3×10^5 per mL and a 150 μL portion of this suspension is in each case placed in a well of the cell culture plates which have been coated as described above. The plates are left to stand in the incubator for two to three days at 37° C., 5 vol. % CO2 and 95% relative atmospheric humidity.
The cells are then loaded with 2 μM Fluo-4 and 0.01 vol. % Pluronic F127 (Molecular Probes Europe BV, Leiden, Netherlands) in HBSS buffer (Hank's buffered saline solution, Gibco Invitrogen GmbH, Karlsruhe, Germany) for 30 min at 37° C., washed 3×with HBSS buffer and, after a further 15 minutes' incubation at room temperature, used for Ca^2+ measurement in the FLIPR assay. Ca^2+-dependent fluorescence is here measured before and after the addition of substances (λex=488 nm, λem=540 nm). […]

[2] = molecular target: T2, vanilloid receptor (VR1) (Homo sapiens, UniProt Q8NER1); assay: FLIPR Ca2+ influx assay with CHO K1 cells transfected with the human VR1 gene, capsaicin stimulus (Pharmacological method II); conditions: for Ki / Ki (human) Capsaicin: capsaicin 100 nM stimulus, Ki from IC50 by Cheng-Prusoff
T2 construct: expressed in transfected cells; host or cells: CHO K1 cells (ECACC), stably transfected
Description: In addition, compounds according to the invention of the general formulae I, Ia, Ib, I′, I″, I′″ may be preferred which, in a FLIPR assay with CHO K1 cells which have been transfected with the human gene VR1, in a concentration of less than 2000 nM, preferably of less than 1000 nM, particularly preferably of less then 300 nM, very particularly preferably of less than 100 nM, still more preferably of less than 75 nM, further preferably of less than 50 nM, most preferably of less than 10 nM, bring about 50% displacement of capsaicin which is present in a concentration of 100 nM.
In this FLIPR assay, the influx of Ca^2+ is quantified with the assistance of a Ca^2+-sensitive dye (type Fluo-4, Molecular Probes Europe BV, Leiden, Netherlands) in a Fluorescent Imaging Plate Reader (FLIPR, Molecular Devices, Sunnyvale, USA) as described below.
as §1, with “(VR1)” for “1 (VR1/TRPV1) of the rat species”, “may also” for “may”, “the” for “the receptor”
Chinese hamster ovary cells (CHO K1 cells, European Collection of Cell Cultures (ECACC), Great Britain) are stably transfected with the VR1 gene. For functional investigations, these cells are plated out onto poly-D-lysine-coated, black 96-hole plates with a clear base (BD Biosciences, Heidelberg, Germany) at a density of 25,000 cells/hole. The cells are incubated overnight at 37° C. and 5% CO2 in a culture medium (Ham's Nutrient Mixture F12, 10 vol. % FCS (foetal calf serum), 18 μg/mL L-proline). On the following day, the cells are incubated with Fluo-4 (Fluo-4 2 μM, Pluronic F127 0.01 vol. %, Molecular Probes in HBSS (Hank's buffered saline solution), Gibco Invitrogen GmbH, Karlsruhe, Germany) for 30 minutes at 37° C. The plates are then washed 3 times with HBSS buffer and, after a further 15 minutes' incubation at room temperature, used for Ca^2+ measurement in the FLIPR. Ca^2+-dependent fluorescence is here measured before and after the addition of the substances to be investigated (wavelength λex=488 nm, λem=540 nm). Quantification proceeds by measuring the highest fluorescence intensity (FC, fluorescence counts) over time.
The FLIPR protocol consists of 2 additions of substance. The substances to be tested (10 μM) are firstly pipetted onto the cells and Ca^2+ influx is compared with the control (capsaicin 10 μM) (% activation relative to the Ca^2+ signal after addition of 10 μM of capsaicin). After 5 minutes' incubation, 100 nM of capsaicin are added and the influx of Ca^2+ is likewise determined.
The percentage inhibition in comparison with the maximum achievable inhibition with 10 μM capsaicin is calculated.
On the basis of the percentage displacement by different concentrations of the compounds to be tested of the general formula I, IC50 inhibition concentrations which bring about 50% displacement of capsaicin were calculated. Ki values for the test substances were obtained by conversion using the Cheng-Prusoff equation (Cheng, Prusoff; Biochem. Pharmacol. 22, 3099-3108, 1973).

[3] = molecular target: vanilloid receptor 1 (VR1/TRPV1 receptor) (Homo sapiens, UniProt Q8NER1); assay: Human VR1/TRPV1 receptor inhibition after pH stimulus; conditions: for inhibition at 5 µM: compound 5 μM; for inhibition at 10 µM: compound 10 μM
Sequence of vanilloid receptor 1 (VR1/TRPV1 receptor) (Q8NER1 whole entry): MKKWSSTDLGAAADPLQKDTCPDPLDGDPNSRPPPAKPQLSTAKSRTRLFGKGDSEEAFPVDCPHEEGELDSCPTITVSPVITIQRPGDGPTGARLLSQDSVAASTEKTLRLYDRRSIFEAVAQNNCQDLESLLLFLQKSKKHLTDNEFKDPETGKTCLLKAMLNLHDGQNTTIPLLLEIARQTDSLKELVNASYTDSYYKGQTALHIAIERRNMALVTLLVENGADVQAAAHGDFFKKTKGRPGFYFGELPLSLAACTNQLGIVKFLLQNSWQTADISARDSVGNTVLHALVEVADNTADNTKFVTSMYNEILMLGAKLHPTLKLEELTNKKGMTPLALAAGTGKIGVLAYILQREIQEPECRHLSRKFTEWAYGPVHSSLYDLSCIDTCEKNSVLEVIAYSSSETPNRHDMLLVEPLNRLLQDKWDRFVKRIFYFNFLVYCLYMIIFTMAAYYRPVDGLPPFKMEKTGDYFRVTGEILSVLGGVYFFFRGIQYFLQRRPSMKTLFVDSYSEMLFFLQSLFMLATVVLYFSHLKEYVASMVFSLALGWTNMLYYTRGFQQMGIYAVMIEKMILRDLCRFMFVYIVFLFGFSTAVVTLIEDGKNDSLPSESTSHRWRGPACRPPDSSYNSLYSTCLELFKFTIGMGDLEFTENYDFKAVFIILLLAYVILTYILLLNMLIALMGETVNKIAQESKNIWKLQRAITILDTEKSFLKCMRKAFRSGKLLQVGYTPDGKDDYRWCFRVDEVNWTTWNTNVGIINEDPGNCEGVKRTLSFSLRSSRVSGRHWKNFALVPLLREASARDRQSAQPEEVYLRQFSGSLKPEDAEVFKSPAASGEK

T1 sequence (O35433 whole entry): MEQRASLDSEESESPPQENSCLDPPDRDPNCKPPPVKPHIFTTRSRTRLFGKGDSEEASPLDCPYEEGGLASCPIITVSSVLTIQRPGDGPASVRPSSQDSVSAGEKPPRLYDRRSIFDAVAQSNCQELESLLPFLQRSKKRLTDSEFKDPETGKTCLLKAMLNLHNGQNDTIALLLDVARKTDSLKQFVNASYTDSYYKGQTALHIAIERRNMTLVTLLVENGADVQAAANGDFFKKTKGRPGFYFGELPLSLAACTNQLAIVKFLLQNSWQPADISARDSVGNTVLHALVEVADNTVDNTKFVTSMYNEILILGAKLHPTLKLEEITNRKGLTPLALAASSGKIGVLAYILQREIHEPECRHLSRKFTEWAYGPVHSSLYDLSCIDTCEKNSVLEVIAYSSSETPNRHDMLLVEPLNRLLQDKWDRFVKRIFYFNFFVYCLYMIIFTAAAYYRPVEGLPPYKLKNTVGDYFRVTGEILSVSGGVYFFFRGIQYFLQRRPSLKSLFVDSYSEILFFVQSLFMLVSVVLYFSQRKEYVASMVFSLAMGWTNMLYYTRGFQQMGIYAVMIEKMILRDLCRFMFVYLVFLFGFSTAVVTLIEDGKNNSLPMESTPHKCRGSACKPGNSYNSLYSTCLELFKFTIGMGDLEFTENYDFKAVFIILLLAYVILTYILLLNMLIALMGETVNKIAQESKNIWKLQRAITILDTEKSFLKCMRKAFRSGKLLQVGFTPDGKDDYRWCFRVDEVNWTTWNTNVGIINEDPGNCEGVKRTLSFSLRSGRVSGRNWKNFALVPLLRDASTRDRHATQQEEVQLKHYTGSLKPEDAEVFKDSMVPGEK
T2 sequence (Q8NER1 whole entry): as the sequence (Q8NER1 whole entry) above

Ki [1] [nM]	Ki [2] [nM]	inhibition at 5 µM [3] [%]	inhibition at 10 µM [3] [%]	Ki (human) Capsaicin [2]	inhibition at 0.1 µM ([2]; CHO-K1, capsaicin stimulus, compound 0.1 μM) [%]	inhibition at 1 µM ([2]; CHO-K1, capsaicin stimulus, compound 1 μM) [%]	inhibition at 5 µM ([2]; CHO-K1, capsaicin stimulus, compound 5 μM) [%]	IC50 (human) after pH stimulus [3]	IC50 [3] [nM]	inhibition at 1 µM ([3]; compound 1 μM) [%]	Structure (SMILES)
16.8	–	–	–	–	0	33	56	ne	–	–	CC(C(=O)NCc1ccc(C(C)(C)C)nc1SC1CCCCC1)c1ccc(N(C)S(C)(=O)=O)c(F)c1 (stereo not shown) [Example 11, N-((6-tert.-butyl-2-(cyclohexylthio)pyridin-3-yl)methyl)-2-(3-fluoro-4-(N-methylmethylsulfonamido)phenyl)propanamide]
3	13.1	9	43	–	–	–	–	–	–	–	CC1CCN(c2cc(C(C)(C)C)ccc2CNC(=O)C(C)c2ccc(N(C)S(C)(=O)=O)c(F)c2)CC1 (stereo not shown) [Example 14, N-(4-tert.-butyl-2-(4-methylpiperidin-1-yl)benzyl)-2-(3-fluoro-4-(N-methylmethylsulfonamido)phenyl)propanamide]
5	7.8	0	43	–	–	–	–	–	–	–	CC1CCN(c2cc(C(F)(F)F)ccc2CNC(=O)C(C)c2ccc(N(C)S(C)(=O)=O)c(F)c2)CC1 (stereo not shown) [Example 12, 2-(3-fluoro-4-(N-methylmethylsulfonamido)phenyl)-N-(2-(4-methylpiperidin-1-yl)-4-(trifluoromethyl)benzyl)propanamide]
7.6	18.3	6	30	–	–	–	–	–	–	0	CC(C(=O)NCc1ccc(C(C)(C)C)cc1SC1CCCCC1)c1ccc(N(C)S(C)(=O)=O)c(F)c1 (stereo not shown) [Example 15, N-(4-tert.-butyl-2-(cyclohexylthio)benzyl)-2-(3-fluoro-4-(N-methylmethylsulfonamido)phenyl)propanamide]
5.2	33.1	–	–	–	–	–	–	ne	–	–	CC(C(=O)NCc1ccc(C(F)(F)F)cc1SC1CCCCC1)c1ccc(N(C)S(C)(=O)=O)c(F)c1 (stereo not shown) [Example 13, N-(2-(cyclohexylthio)-4-(trifluoromethyl)benzyl)-2-(3-fluoro-4-(N-methylmethylsulfonamido)phenyl)propanamide]

Second part, the molecule before the results:

Structure (SMILES)	Ki [1] [nM]	Ki [2] [nM]	inhibition at 5 µM [3] [%]	inhibition at 10 µM [3] [%]	Ki (human) Capsaicin [2]	inhibition at 0.1 µM ([2]; CHO-K1, capsaicin stimulus, compound 0.1 μM) [%]	inhibition at 1 µM ([2]; CHO-K1, capsaicin stimulus, compound 1 μM) [%]	inhibition at 5 µM ([2]; CHO-K1, capsaicin stimulus, compound 5 μM) [%]	IC50 (human) after pH stimulus [3]	IC50 [3] [nM]	inhibition at 1 µM ([3]; compound 1 μM) [%]
CC1CCN(c2nc(C(C)(C)C)ccc2CNC(=O)C(C)c2ccc(N(C)S(C)(=O)=O)c(F)c2)CC1 (stereo not shown) [Example 10, N-((6-tert.-butyl-2-(4-methylpiperidin-1-yl)pyridin-3-yl)methyl)-2-(3-fluoro-4-(N-methylmethylsulfonamido)phenyl)propanamide]	2.8	27.7	0	11	–	–	–	–	–	–	–
CCN(c1ccc([C@H](C)C(=O)NCc2ccc(C(C)(C)C)cc2)cc1F)S(C)(=O)=O [Example 6, (S)—N-(4-tert.-butylbenzyl)-2-(4-(N-ethylmethylsulfonamido)-3-fluorophenyl)propanamide]	66.8	–	0	21	Ne	–	–	–	–	–	–
CCN(c1ccc(C(C)C(=O)NCc2ccc(C(F)(F)F)nc2N2CCC(C)CC2)cc1F)S(C)(=O)=O (stereo not shown) [Example 9, 2-(4-(N-ethylmethylsulfonamido)-3-fluorophenyl)-N-((2-(4-methylpiperidin-1-yl)-6-(trifluoromethyl)pyridin-3-yl)methyl)propanamide]	63.8	22.7	11	46	–	–	–	–	–	–	–
CC(C(=O)NCc1ccc(C(C)(C)C)cc1)c1ccc(N(C)S(C)(=O)=O)c(F)c1 (stereo not shown) [Example 4, N-(4-tert.-butylbenzyl)-2-(3-fluoro-4-(N-methylmethylsulfonamido)phenyl)propanamide]	50.4	–	0	22	Ne	–	–	–	–	–	–
CC(=O)N(c1ccc(C(C)C(=O)NCc2ccc(C(F)(F)F)nc2N2CCC(C)CC2)cc1F)S(C)(=O)=O (stereo not shown) [Example 2, 2-(3-fluoro-4-(N-(methylsulfonyl)acetamido)phenyl)-N-((2-(4-methylpiperidin-1-yl)-6-(trifluoromethyl)pyridin-3-yl)methyl)propanamide]	2.2	11.9	–	–	–	–	–	–	–	947	–
